Assay results from patent US20250339409A1, “USES OF PAN BET INHIBITORS” (VYNE THERAPEUTICS INC., priority 2021, published 2025).

System: imiquimod-induced psoriasis
Assay: Imiquimod-induced psoriasis (Th17 inflammation) model in mice, topical treatment once daily D7-D13: PASI, modified PASI, body weight, use of enrichment, TEWL
Type: in vivo
Parameters: key to Mean score use enrichment: 0 = no use of dental rolls to 4 = use of all 4; key to PASI Mean score values: sum of erythema, induration, peeling scores, each 0-3 (0 = none)
Settings: imiquimod-induced mice
Procedure: Thirty-six (36) female Balb/c mice are weighed and randomly divided into 9 groups (n=4) according to body weight on D1. For mice of native group 1 and tolerance groups 8 and 9, no induction of psoriasis is performed between D1 and D13. Psoriasis is induced in groups 2 to 7 by once daily topical application for 13 days (from day 1 to day 13) of 65 mg of Aldara™ cream (5.0% imiquimod) onto the shaved and epilated back of mice. Before the first treatment, a second randomization of mice of the 6 imiquimod-induced psoriasis groups is performed according to the severity of psoriasis (PASI), and also the body weight of mice. Starting on day 7 and until day 13, 100 mg of test formulations […] and 65 mg of vehicle (groups 1 and […]) are topically administered once daily for 7 consecutive days onto the shaved back skin of mice. Several measurements are taken during treatment period from day 7 to day 14: psoriasis index (PASI), body weight, use of enrichment and mortality. At the end of treatment period, TEWL is assessed, and blood and skin samples are collected. Histological analysis of skin samples is used for microscopic scoring of psoriasis and the determination of the thickness of parakeratosis and epidermis and blood analysis is used for assessing the level of proinflammatory biomarkers (cytokines assays). The effect of treatment of psoriasis induced mice with BETi formulations at the four dose levels are compared with Dermoval® cream containing 0.05% clobetasol propionate (reference) and vehicle (positive control) and also with healthy mice treated with vehicle (negative control).
PASI scoring takes into account the following 3 parameters: the presence of erythema on the skin, induration of the skin (thickening) and peeling of the skin at the area of the induction of psoriasis.
The presence of erythema on the skin at the area of induction of psoriasis with the following scoring grid: • 0=no or no more erythema on the skin, • 1=weak erythema on the skin, • 2=moderate erythema on the skin, • 3=important erythema on the skin.
The presence of induration of the skin at the area of induction of psoriasis with the following scoring grid: • 0=no or no more induration of the skin, • 1=weak induration of the skin, • 2=moderate induration of the skin, • 3=important induration of the skin.
The presence of peeling of the skin at the area of induction of psoriasis with the following scoring grid: • 0=no or no more dryness/peeling of the skin, • 1=weak dryness/peeling of the skin, • 2=moderate dryness/peeling of the skin, • 3=important dryness/peeling of the skin.
The sum of the mean scores of these 3 parameters result in the mean PASI score.
One of the issues with a steroid is that it causes skin thinning and continues to have an effect on no longer inflamed skin and the model set up and measurements above are not designed to reflect this negative effect. Therefore, a modified PASI (mPASI) is calculated in the same the manner as mean PASI score but excludes the scoring for induration (thickening of the skin).
Mice are weighed three times during the week of D1 to D7, and then daily during the week of D7 to D13, as well as on the day D14 when they are sacrificed. It should be noted that a characteristic body weight loss of mice is observed after the start of the induction of psoriasis, mainly during the first days following it. The body weight loss can reach between 10 to 15%.
For the duration of the experiment, dental rolls are used as enrichment and placed in each cage and replaced twice. Between D1 and D7, the number of dental rolls used by animals are determined twice in the morning, and are determined daily during D7 to D14, at the time of PASI or the tolerance assessment. The use of dental rolls is scored from 0=no use of dental rolls to 4=use of the 4 dental rolls. In the case where only half of a dental roll is used, a score of 0.5 is assigned. […]

Question: What does the source list for `Cn1cc(-c2cccc(O)c2Oc2ccccc2)c2cc[nH]c2c1=O` [BETi1]?
Answer: PASI Mean score values (D 7): 8.00; Modified PASI Mean score values (D 7, listed as BETI1 0.01%): 5.75; Modified PASI Mean score values (D 7, listed as BETI1 0.1%): 5.75; Modified PASI Mean score values (D 7, listed as BETI1 1.0%): 5.50; Mean score use enrichment (D 7, listed as BETi 0.001%): 4.00; Mean score use enrichment (D 7, listed as BETi 0.01%): 3.50; Mean score use enrichment (D 7, listed as BETi 0.1%): 3.00; Modified PASI Mean score values (D 7, listed as BETi1 0.001%): 5.50; Mean score use enrichment (D 7, listed as BETi 1.0%): 2.00; Mean score use enrichment (D 8-D 14, listed as BETi 0.001%): 3.17; Mean score use enrichment (D 8-D 14, listed as BETi 0.01%): 3.58; Mean score use enrichment (D 8-D 14, listed as BETi 0.1%): 3.75; Mean score use enrichment (D 8-D 14, listed as BETi 1.0%): 3.58; Modified PASI Mean score values (D 8, listed as BETI1 0.1%): 6.00; PASI Mean score values (D 8, listed as BETI1 0.1%): 8.50; Modified PASI Mean score values (D 8, listed as BETI1 1.0%): 6.25; PASI Mean score values (D 8, listed as BETI1 1.0%): 9.00; Mean score use enrichment (D 8, listed as BETi 0.001%): 4.00; Mean score use enrichment (D 8, listed as BETi 0.01%): 4.00; Mean score use enrichment (D 8, listed as BETi 0.1%): 3.25; Modified PASI Mean score values (D 8, listed as BETi1 0.001%): 7.00; PASI Mean score values (D 8, listed as BETi1 0.001%): 10.00; Modified PASI Mean score values (D 8, listed as BETi1 0.01%): 5.50; PASI Mean score values (D 8, listed as BETi1 0.01%): 8.25; Mean score use enrichment (D 8, listed as BETi 1.0%): 2.25; Modified PASI Mean score values (D 9, listed as BETI1 0.1%): 4.50; PASI Mean score values (D 9, listed as BETI1 0.1%): 7.25; Modified PASI Mean score values (D 9, listed as BETI1 1.0%): 5.75; PASI Mean score values (D 9, listed as BETI1 1.0%): 8.50; Mean score use enrichment (D 9, listed as BETi 0.001%): 1.00; Mean score use enrichment (D 9, listed as BETi 0.01%): 2.25; Mean score use enrichment (D 9, listed as BETi 0.1%): 2.75; Modified PASI Mean score values (D 9, listed as BETi1 0.001%): 6.25; PASI Mean score values (D 9, listed as BETi1 0.001%): 9.25; Modified PASI Mean score values (D 9, listed as BETi1 0.01%): 4.00; PASI Mean score values (D 9, listed as BETi1 0.01%): 6.75; Mean score use enrichment (D 9, listed as BETi 1.0%): 2.00; Modified PASI Mean score values (D 10, listed as BETI1 0.1%): 2.75; PASI Mean score values (D 10, listed as BETI1 0.1%): 4.50; Modified PASI Mean score values (D 10, listed as BETI1 1.0%): 4.75; PASI Mean score values (D 10, listed as BETI1 1.0%): 7.25; Mean score use enrichment (D 10, listed as BETi 0.001%): 2.25; Mean score use enrichment (D 10, listed as BETi 0.01%): 3.25; Mean score use enrichment (D 10, listed as BETi 0.1%): 3.75; Modified PASI Mean score values (D 10, listed as BETi1 0.001%): 5.50; PASI Mean score values (D 10, listed as BETi1 0.001%): 8.50; Modified PASI Mean score values (D 10, listed as BETi1 0.01%): 3.50; PASI Mean score values (D 10, listed as BETi1 0.01%): 6.00; Mean score use enrichment (D 10, listed as BETi 1.0%): 3.00; Modified PASI Mean score values (D 11, listed as BETI1 0.1%): 1.25; PASI Mean score values (D 11, listed as BETI1 0.1%): 2.75; Modified PASI Mean score values (D 11, listed as BETI1 1.0%): 3.50; PASI Mean score values (D 11, listed as BETI1 1.0%): 5.50; Mean score use enrichment (D 11, listed as BETi 0.001%): 3.75; Mean score use enrichment (D 11, listed as BETi 0.01%): 4.00; Mean score use enrichment (D 11, listed as BETi 0.1%): 4.00; Modified PASI Mean score values (D 11, listed as BETi1 0.001%): 5.50; PASI Mean score values (D 11, listed as BETi1 0.001%): 8.00; Mean body weights (D 11, listed as BETi1 0.01%): 17.93; Modified PASI Mean score values (D 11, listed as BETi1 0.01%): 2.75; PASI Mean score values (D 11, listed as BETi1 0.01%): 5.00; Mean score use enrichment (D 11, listed as BETi 1.0%): 3.50; Modified PASI Mean score values (D 12, listed as BETI1 0.1%): 0.50; PASI Mean score values (D 12, listed as BETI1 0.1%): 1.00; Modified PASI Mean score values (D 12, listed as BETI1 1.0%): 4.25; PASI Mean score values (D 12, listed as BETI1 1.0%): 7.25; Mean score use enrichment (D 12, listed as BETi 0.001%): 4.00; Mean score use enrichment (D 12, listed as BETi 0.01%): 4.00; Mean score use enrichment (D 12, listed as BETi 0.1%): 4.00; Modified PASI Mean score values (D 12, listed as BETi1 0.001%): 4.50; PASI Mean score values (D 12, listed as BETi1 0.001%): 6.00; Modified PASI Mean score values (D 12, listed as BETi1 0.01%): 1.00; PASI Mean score values (D 12, listed as BETi1 0.01%): 2.25; Mean score use enrichment (D 12, listed as BETi 1.0%): 2.25; Modified PASI Mean score values (D 13, listed as BETI1 0.1%): 0.50; PASI Mean score values (D 13, listed as BETI1 0.1%): 1.00; Modified PASI Mean score values (D 13, listed as BETI1 1.0%): 3.25; PASI Mean score values (D 13, listed as BETI1 1.0%): 5.25; Mean score use enrichment (D 13, listed as BETi 0.001%): 4.00; Mean score use enrichment (D 13, listed as BETi 0.01%): 4.00; Mean score use enrichment (D 13, listed as BETi 0.1%): 4.00; Modified PASI Mean score values (D 13, listed as BETi1 0.001%): 4.00; PASI Mean score values (D 13, listed as BETi1 0.001%): 5.50; Modified PASI Mean score values (D 13, listed as BETi1 0.01%): 1.75; PASI Mean score values (D 13, listed as BETi1 0.01%): 2.75; Mean score use enrichment (D 13, listed as BETi 1.0%): 2.75; Mean score use enrichment (D 14): 4.00; Mean TEWL score values (D14, Lower back, listed as BETi1 1.0%): 30.63 g/h/m2; Mean TEWL score values (D14, Lower back, listed as BETi10.001%): 42.11 g/h/m2; Mean TEWL score values (D14, Lower back, listed as BETi10.01%): 57.25 g/h/m2; Mean TEWL score values (D14, Lower back, listed as BETi10.1%): 39.27 g/h/m2; Mean TEWL score values (D14, Mean, listed as BETi1 1.0%): 38.60 g/h/m2; Mean TEWL score values (D14, Mean, listed as BETi10.001%): 40.35 g/h/m2; Mean TEWL score values (D14, Mean, listed as BETi10.01%): 39.55 g/h/m2; Mean TEWL score values (D14, Mean, listed as BETi10.1%): 27.14 g/h/m2; Mean TEWL score values (D14, Mid back, listed as BETi1 1.0%): 40.80 g/h/m2; Mean TEWL score values (D14, Mid back, listed as BETi10.001%): 41.26 g/h/m2; Mean TEWL score values (D14, Mid back, listed as BETi10.01%): 34.53 g/h/m2; Mean TEWL score values (D14, Mid back, listed as BETi10.1%): 24.04 g/h/m2; Mean TEWL score values (D14, Upper back, listed as BETi1 1.0%): 44.36 g/h/m2; Mean TEWL score values (D14, Upper back, listed as BETi10.001%): 37.67 g/h/m2; Mean TEWL score values (D14, Upper back, listed as BETi10.01%): 26.87 g/h/m2; Mean TEWL score values (D14, Upper back, listed as BETi10.1%): 18.11 g/h/m2; Modified PASI Mean score values (D 14, listed as BETI1 0.1%): 0.50; PASI Mean score values (D 14, listed as BETI1 0.1%): 1.25; Modified PASI Mean score values (D 14, listed as BETI1 1.0%): 3.50; PASI Mean score values (D 14, listed as BETI1 1.0%): 5.00; Modified PASI Mean score values (D 14, listed as BETi1 0.001%): 3.75; PASI Mean score values (D 14, listed as BETi1 0.001%): 5.50; Modified PASI Mean score values (D 14, listed as BETi1 0.01%): 1.50; PASI Mean score values (D 14, listed as BETi1 0.01%): 2.25; clinical signs (end of treatment): substantial resolution of clinical signs; dermal tolerance (topical 7 days): no evidence of dermal tolerance issues; reduction in mPASI score (composite inflammation severity score) relative to vehicle control group (treatment Day 7): 94%; Absolute Body Weight Change from day 1 to day 14, D14 − D1, individual mouse (listed as BETi1 -0.001%): 1.58
